System: 324938-238-R-J1-PDC complex spheroid viability
Assay: Anticancer human tumor 324938-238-R-J1-PDC patient-derived bladder carcinoma cell line growth inhibition
Settings: for IC50: curve of first compound; for viability, T/C: stronger effect = lower value
How it was run: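 Multicellular complex spheroids of tumor cells with human endothelial cells (HUVEC) and mesenchymal stem cells; the LSD1 inhibitor iadademstat was combined with standard-of-care or investigational agents. Top concentration at or near clinical Cmax, half-log dilutions; final DMSO ≤0.25%.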

[1] = second compound 0.1 µM, first compound 0.0316 µM
[2] = second compound 0.1 µM, first compound 0.1 µM
[3] = second compound 0.1 µM, first compound 0.316 µM
[4] = second compound 0.1 µM, first compound 1 µM
[5] = second compound 0.316 µM, first compound 0.0316 µM
[6] = second compound 0.316 µM, first compound 0.1 µM
[7] = second compound 0.316 µM, first compound 0.316 µM
[8] = second compound 0.316 µM, first compound 1 µM
[9] = second compound 1 µM, first compound 0.0316 µM
[10] = second compound 1 µM, first compound 0.1 µM
[11] = second compound 1 µM, first compound 0.316 µM
[12] = second compound 1 µM, first compound 1 µM
[13] = second compound 3.16 µM, first compound 0.0316 µM
[14] = second compound 3.16 µM, first compound 0.1 µM
[15] = second compound 3.16 µM, first compound 0.316 µM
[16] = second compound 3.16 µM, first compound 1 µM
[17] = second compound 10 µM, first compound 0.0316 µM
[18] = second compound 10 µM, first compound 0.1 µM
[19] = second compound 10 µM, first compound 0.316 µM
[20] = second compound 10 µM, first compound 1 µM
[21] = second compound 0.1 µM, first compound 0.00949 µM
[22] = second compound 0.1 µM, first compound 0.03 µM
[23] = second compound 0.1 µM, first compound 0.0949 µM
[24] = second compound 0.1 µM, first compound 0.3 µM
[25] = second compound 0.1 µM, first compound 0.949 µM
[26] = second compound 0.1 µM, first compound 3 µM
[27] = second compound 0.316 µM, first compound 0.00949 µM
[28] = second compound 0.316 µM, first compound 0.03 µM
[29] = second compound 0.316 µM, first compound 0.0949 µM
[30] = second compound 0.316 µM, first compound 0.3 µM
[31] = second compound 0.316 µM, first compound 0.949 µM
[32] = second compound 0.316 µM, first compound 3 µM
[33] = second compound 1 µM, first compound 0.00949 µM
[34] = second compound 1 µM, first compound 0.03 µM
[35] = second compound 1 µM, first compound 0.0949 µM
[36] = second compound 1 µM, first compound 0.3 µM
[37] = second compound 1 µM, first compound 0.949 µM
[38] = second compound 1 µM, first compound 3 µM
[39] = second compound 3.16 µM, first compound 0.00949 µM
[40] = second compound 3.16 µM, first compound 0.03 µM
[41] = second compound 3.16 µM, first compound 0.0949 µM
[42] = second compound 3.16 µM, first compound 0.3 µM
[43] = second compound 3.16 µM, first compound 0.949 µM
[44] = second compound 3.16 µM, first compound 3 µM
[45] = second compound 10 µM, first compound 0.00949 µM
[46] = second compound 10 µM, first compound 0.03 µM
[47] = second compound 10 µM, first compound 0.0949 µM
[48] = second compound 10 µM, first compound 0.3 µM
[49] = second compound 10 µM, first compound 0.949 µM
[50] = second compound 10 µM, first compound 3 µM
[51] = second compound 0.1 µM, first compound 0.00316 µM
[52] = second compound 0.1 µM, first compound 0.01 µM
[53] = second compound 0.316 µM, first compound 0.00316 µM
[54] = second compound 0.316 µM, first compound 0.01 µM
[55] = second compound 1 µM, first compound 0.00316 µM
[56] = second compound 1 µM, first compound 0.01 µM
[57] = second compound 3.16 µM, first compound 0.00316 µM
[58] = second compound 3.16 µM, first compound 0.01 µM
[59] = second compound 10 µM, first compound 0.00316 µM
[60] = second compound 10 µM, first compound 0.01 µM
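Also: spheroids also contain HUVEC and human MSCs and agents combined with iadademstat; spheroids exposed to agents for 7 days before readout.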

## CC1(C)CCC(CN2CCN(c3ccc(C(=O)NS(=O)(=O)c4ccc(NCC5CCOCC5)c([N+](=O)[O-])c4)c(Oc4cnc5[nH]ccc5c4)c3)CC2)=C(c2ccc(Cl)cc2)C1 + NC1CCC(NC2CC2c2ccccc2)CC1
Second compound 0.1 µM
  IC50: 5.12 µM
Second compound 0.316 µM
  IC50: 5.64 µM
Second compound 1 µM
  IC50: 4.25 µM
Second compound 3.16 µM
  IC50: 4.62 µM
Second compound 10 µM
  IC50: 4.48 µM
[1]
  viability, T/C: 75.7%
[2]
  viability, T/C: 71.4%
[3]
  viability, T/C: 72.2%
[4]
  viability, T/C: 71%
Second compound 0.1 µM, first compound 3.16 µM
  viability, T/C: 65.2%
Second compound 0.1 µM, first compound 10 µM
  viability, T/C: 29.1%
[5]
  viability, T/C: 74.2%
[6]
  viability, T/C: 75.5%
[7]
  viability, T/C: 79.7%
[8]
  viability, T/C: 71.2%
Second compound 0.316 µM, first compound 3.16 µM
  viability, T/C: 69.7%
Second compound 0.316 µM, first compound 10 µM
  viability, T/C: 30.9%
[9]
  viability, T/C: 75.2%
[10]
  viability, T/C: 78%
[11]
  viability, T/C: 68.7%
[12]
  viability, T/C: 66.1%
Second compound 1 µM, first compound 3.16 µM
  viability, T/C: 60.6%
Second compound 1 µM, first compound 10 µM
  viability, T/C: 26.7%
[13]
  viability, T/C: 68.3%
[14]
  viability, T/C: 68%
[15]
  viability, T/C: 68.8%
[16]
  viability, T/C: 70.8%
Second compound 3.16 µM, first compound 3.16 µM
  viability, T/C: 61.7%
Second compound 3.16 µM, first compound 10 µM
  viability, T/C: 24.8%
[17]
  viability, T/C: 71.7%
[18]
  viability, T/C: 64.3%
[19]
  viability, T/C: 64.7%
[20]
  viability, T/C: 70.4%
Second compound 10 µM, first compound 3.16 µM
  viability, T/C: 59.5%
Second compound 10 µM, first compound 10 µM
  viability, T/C: 26%

## CCN(c1cc(-c2ccc(CN3CCOCC3)cc2)cc(C(=O)NCc2c(C)cc(C)[nH]c2=O)c1C)C1CCOCC1 + NC1CCC(NC2CC2c2ccccc2)CC1
Second compound 0.1 µM
  IC50: > 3 µM
Second compound 0.316 µM
  IC50: > 3 µM
Second compound 1 µM
  IC50: > 3 µM
Second compound 3.16 µM
  IC50: > 3 µM
Second compound 10 µM
  IC50: > 3 µM
[21]
  viability, T/C: 76.4%
[22]
  viability, T/C: 75.4%
[23]
  viability, T/C: 76.7%
[24]
  viability, T/C: 77.6%
[25]
  viability, T/C: 75.8%
[26]
  viability, T/C: 77.6%
[27]
  viability, T/C: 74.5%
[28]
  viability, T/C: 83.1%
[29]
  viability, T/C: 70.5%
[30]
  viability, T/C: 74.8%
[31]
  viability, T/C: 80.4%
[32]
  viability, T/C: 75.1%
[33]
  viability, T/C: 74.5%
[34]
  viability, T/C: 74.7%
[35]
  viability, T/C: 71.5%
[36]
  viability, T/C: 81%
[37]
  viability, T/C: 72.8%
[38]
  viability, T/C: 81.7%
[39]
  viability, T/C: 67.8%
[40]
  viability, T/C: 74.7%
[41]
  viability, T/C: 71.5%
[42]
  viability, T/C: 74%
[43]
  viability, T/C: 72.9%
[44]
  viability, T/C: 69%
[45]
  viability, T/C: 72.1%
[46]
  viability, T/C: 68.7%
[47]
  viability, T/C: 76.5%
[48]
  viability, T/C: 70.5%
[49]
  viability, T/C: 66.4%
[50]
  viability, T/C: 74.2%

## COc1cc(Nc2ncc3c(n2)-c2ccc(Cl)cc2C(c2c(F)cccc2OC)=NC3)ccc1C(=O)O + NC1CCC(NC2CC2c2ccccc2)CC1
Second compound 0.1 µM
  IC50: 0.0208 µM
Second compound 0.316 µM
  IC50: 0.0188 µM
Second compound 1 µM
  IC50: 0.0185 µM
Second compound 3.16 µM
  IC50: 0.0154 µM
Second compound 10 µM
  IC50: 0.0207 µM
[51]
  viability, T/C: 75.9%
[52]
  viability, T/C: 67.5%
[1]
  viability, T/C: 39.9%
[2]
  viability, T/C: 23%
[3]
  viability, T/C: 20.4%
[4]
  viability, T/C: 17.9%
[53]
  viability, T/C: 79.8%
[54]
  viability, T/C: 65.7%
[5]
  viability, T/C: 37.4%
[6]
  viability, T/C: 20.5%
[7]
  viability, T/C: 18.3%
[8]
  viability, T/C: 20.9%
[55]
  viability, T/C: 73.3%
[56]
  viability, T/C: 63.5%
[9]
  viability, T/C: 38.5%
[10]
  viability, T/C: 19.6%
[11]
  viability, T/C: 21.9%
[12]
  viability, T/C: 19.4%
[57]
  viability, T/C: 74.2%
[58]
  viability, T/C: 56.1%
[13]
  viability, T/C: 39.9%
[14]
  viability, T/C: 24.9%
[15]
  viability, T/C: 21.7%
[16]
  viability, T/C: 21.2%
[59]
  viability, T/C: 70.7%
[60]
  viability, T/C: 65.3%
[17]
  viability, T/C: 40%
[18]
  viability, T/C: 31%
[19]
  viability, T/C: 22.7%
[20]
  viability, T/C: 23.1%

## Cn1ncnc1C1c2n[nH]c(=O)c3cc(F)cc(c23)NC1c1ccc(F)cc1 (stereo not given) + NC1CCC(NC2CC2c2ccccc2)CC1
Second compound 0.1 µM
  IC50: > 0.1 µM
Second compound 0.316 µM
  IC50: > 0.1 µM
Second compound 1 µM
  IC50: > 0.1 µM
Second compound 3.16 µM
  IC50: 0.0797 µM
Second compound 10 µM
  IC50: 0.0738 µM
Second compound 0.1 µM, first compound 0.000316 µM
  viability, T/C: 75.7%
Second compound 0.1 µM, first compound 0.001 µM
  viability, T/C: 81.6%
[51]
  viability, T/C: 66.8%
[52]
  viability, T/C: 64.1%
[1]
  viability, T/C: 63.1%
[2]
  viability, T/C: 50.8%
Second compound 0.316 µM, first compound 0.000316 µM
  viability, T/C: 95%
Second compound 0.316 µM, first compound 0.001 µM
  viability, T/C: 86.9%
[53]
  viability, T/C: 73.8%
[54]
  viability, T/C: 66.3%
[5]
  viability, T/C: 65.4%
[6]
  viability, T/C: 55.8%
Second compound 1 µM, first compound 0.000316 µM
  viability, T/C: 70.3%
Second compound 1 µM, first compound 0.001 µM
  viability, T/C: 71.1%
[55]
  viability, T/C: 77.2%
[56]
  viability, T/C: 73%
[9]
  viability, T/C: 59.8%
[10]
  viability, T/C: 52.6%
Second compound 3.16 µM, first compound 0.000316 µM
  viability, T/C: 68.1%
Second compound 3.16 µM, first compound 0.001 µM
  viability, T/C: 77.6%
[57]
  viability, T/C: 74.7%
[58]
  viability, T/C: 66.8%
[13]
  viability, T/C: 58.4%
[14]
  viability, T/C: 48.1%
Second compound 10 µM, first compound 0.000316 µM
  viability, T/C: 66.2%
Second compound 10 µM, first compound 0.001 µM
  viability, T/C: 72.7%
[59]
  viability, T/C: 71.8%
[60]
  viability, T/C: 65%
[17]
  viability, T/C: 54.7%
[18]
  viability, T/C: 48.3%

## NS(=O)(=O)OCC1CC(n2ccc3c(NC4CCc5ccccc54)ncnc32)CC1O (stereo not given) + NC1CCC(NC2CC2c2ccccc2)CC1
Second compound 0.1 µM
  IC50: 0.336 µM
Second compound 0.316 µM
  IC50: 0.336 µM
Second compound 1 µM
  IC50: 0.39 µM
Second compound 3.16 µM
  IC50: 0.309 µM
Second compound 10 µM
  IC50: 0.323 µM
[21]
  viability, T/C: 81.7%
[22]
  viability, T/C: 78.5%
[23]
  viability, T/C: 84.7%
[24]
  viability, T/C: 54.2%
[25]
  viability, T/C: 11.7%
[26]
  viability, T/C: 11.9%
[27]
  viability, T/C: 86.5%
[28]
  viability, T/C: 88.1%
[29]
  viability, T/C: 79.9%
[30]
  viability, T/C: 54.7%
[31]
  viability, T/C: 14.3%
[32]
  viability, T/C: 11.5%
[33]
  viability, T/C: 79.2%
[34]
  viability, T/C: 84.3%
[35]
  viability, T/C: 82.4%
[36]
  viability, T/C: 60.1%
[37]
  viability, T/C: 15.7%
[38]
  viability, T/C: 15.9%
[39]
  viability, T/C: 77.6%
[40]
  viability, T/C: 74.5%
[41]
  viability, T/C: 83.3%
[42]
  viability, T/C: 50.9%
[43]
  viability, T/C: 15.5%
[44]
  viability, T/C: 15.8%
[45]
  viability, T/C: 86.3%
[46]
  viability, T/C: 72.8%
[47]
  viability, T/C: 79.9%
[48]
  viability, T/C: 52.2%
[49]
  viability, T/C: 16.3%
[50]
  viability, T/C: 13.3%
